# Tested on: JR251 or RBL cells
# Assay: Store-operated calcium entry, either JR251 or RBL cells, or both
# Format: cell-based
# Experimental: The day prior to performing the assay, RBL-2H3 cells are plated in 50 μL of complete medium in a 384 well plate. Cells are grown at 37° C./6% CO2 overnight and grow to 50-60% confluence by the next day. On the assay day, 1.5 μM Fluo-4-AM dye (Invitrogen) in complete medium is added and incubated for 1 hour at RT. Cells are washed twice in Ca^2+-free HBSS buffer and 35 μL Ca^2+-free HBSS buffer is added to each well. 10 μL of a test compound prepared in a Ca^2+-free HBSS solution at 4.5× of the desired concentration is added to a well and incubated for 5 minutes at RT. 10 μL of thapsigargin prepared in a Ca^2+-free HBSS solution at 5.5× of the desired concentration (5.5 uM) is added to each well and incubated for an additional 25 minutes. The initial baseline fluorescence signal is measured with a FLIPR^384 (Molecular Devices) plate reader. 5 μL of 12× calcium in HBSS (12 mM) is added and changes in cellular fluorescence are measured with the FLIPR^384 plate reader. In each well, the change in the fluorescent signal as a function of time due to calcium entry into the cell is determined by calculating the difference between the fluorescent signal measured 7 seconds after calcium addition and the initial baseline fluorescence signal at time zero (t=0). This parameter is designated Upslope. The IC50 value is calculated as the concentration at which 50% of the Upslope is inhibited.
row,Compound,IC50
1,O=C(Nc1scc(-c2ccc(C(F)(F)F)cc2Cl)c1C(=O)O)c1nc2ccccc2o1 [2-(benzo[d]oxazole-2-carboxamido)-4-(2-chloro-4-(trifluoromethyl)phenyl)thiophene-3-carboxylic acid],< 10 µM
2,O=C(Nc1scc(-c2ccc(Br)cc2)c1C(=O)O)c1cccc(F)n1 [4-(4-bromophenyl)-2-(6-fluoropicolinamido)thiophene-3-carboxylic acid],< 10 µM
3,"O=C(CC(c1ccccc1)c1ccccc1)Nc1scc(-c2ccc(Cl)cc2)c1C(=O)O [4-(4-chlorophenyl)-2-(3,3-diphenylpropanamido)thiophene-3-carboxylic acid]",< 10 µM
4,O=C(Nc1scc(-c2ccc(Cl)cc2)c1C(=O)O)c1ccc(-c2ccc(Cl)cc2)o1 [4-(4-chlorophenyl)-2-(5-(4-chlorophenyl)furan-2-carboxamido)thiophene-3-carboxylic acid],< 10 µM
5,N#Cc1ccccc1CCC(=O)Nc1scc(-c2ccc(Cl)cc2)c1C(=O)O [4-(4-chlorophenyl)-2-(3-(2-cyanophenyl)propanamido)thiophene-3-carboxylic acid],< 10 µM
6,O=C(Nc1scc(-c2cc3cc(Br)ccc3o2)c1C(=O)O)c1cc2ccccc2o1 [2-(benzofuran-2-carboxamido)-4-(5-bromobenzofuran-2-yl)thiophene-3-carboxylic acid],< 10 µM
7,"O=C(CCc1c(Cl)cccc1Cl)Nc1scc(-c2ccc(Br)cc2)c1C(=O)O [4-(4-bromophenyl)-2-(3-(2,6-dichlorophenyl)propanamido)thiophene-3-carboxylic acid]",< 10 µM
8,"Cc1cccc(C)c1CCC(=O)Nc1scc(-c2ccc(Br)cc2)c1C(=O)O [4-(4-bromophenyl)-2-(3-(2,6-dimethylphenyl)propanamido)thiophene-3-carboxylic acid]",< 10 µM
9,"O=C(Nc1scc(-c2ccc(Cl)c(F)c2F)c1C(=O)O)c1cc2ccccc2o1 [2-(benzofuran-2-carboxamido)-4-(4-chloro-2,3-difluorophenyl)thiophene-3-carboxylic acid]",< 10 µM
10,Cc1cccc2nc(C(=O)Nc3scc(-c4ccc(Cl)cc4)c3C(=O)O)cnc12 [4-(4-chlorophenyl)-2-(5-methylquinoxaline-2-carboxamido)thiophene-3-carboxylic acid],< 10 µM
11,Cc1cc(-c2csc(NC(=O)c3cc4ccccc4o3)c2C(=O)O)c(F)cc1Cl [2-(benzofuran-2-carboxamido)-4-(4-chloro-2-fluoro-5-methylphenyl)thiophene-3-carboxylic acid],< 10 µM
12,O=C(Nc1scc(-c2ccc(Cl)cc2)c1C(=O)O)c1cnc(C(F)(F)F)nc1 [4-(4-chlorophenyl)-2-(2-(trifluoromethyl)pyrimidine-5-carboxamido)thiophene-3-carboxylic acid],< 10 µM
13,"O=C(Nc1scc(-c2ccc(Cl)cc2)c1C(=O)O)c1cc(Cl)sc1Cl [4-(4-chlorophenyl)-2-(2,5-dichlorothiophene-3-carboxamido)thiophene-3-carboxylic acid]",< 10 µM
14,O=C(Nc1scc(-c2cc3cccc(O)c3o2)c1C(=O)O)c1nc2cccc(F)c2o1 [2-(7-fluorobenzo[d]oxazole-2-carboxamido)-4-(7-hydroxybenzofuran-2-yl)thiophene-3-carboxylic acid],< 10 µM
15,O=C(Nc1scc(-c2ccc(Cl)c(C(F)(F)F)c2)c1C(=O)O)c1nc2ccccc2o1 [2-(benzo[d]oxazole-2-carboxamido)-4-(4-chloro-3-(trifluoromethyl)phenyl)thiophene-3-carboxylic acid],< 10 µM
16,"Cc1ccc(-c2csc(NC(=O)c3nc4ccc(Br)cc4o3)c2C(=O)O)c(F)c1F [2-(6-bromobenzo[d]oxazole-2-carboxamido)-4-(2,3-difluoro-4-methylphenyl)thiophene-3-carboxylic acid]",< 10 µM
17,CC(Cc1ccccc1)C(=O)Nc1scc(-c2ccc(Br)cc2)c1C(=O)O (stereo not shown) [4-(4-bromophenyl)-2-(2-methyl-3-phenylpropanamido)thiophene-3-carboxylic acid],< 10 µM
18,O=C(Nc1scc(-c2ccc(Cl)cc2)c1C(=O)O)c1ccc2ccccc2n1 [4-(4-chlorophenyl)-2-(quinoline-2-carboxamido)thiophene-3-carboxylic acid],< 10 µM
19,O=C(Nc1scc(-c2ccc(Cl)cc2)c1C(=O)O)c1nc2cc(F)ccc2o1 [4-(4-chlorophenyl)-2-(5-fluorobenzo[d]oxazole-2-carboxamido)thiophene-3-carboxylic acid],< 10 µM
20,Cc1ccc(-c2csc(NC(=O)c3nc4ccccc4s3)c2C(=O)O)cc1F [2-(benzo[d]thiazole-2-carboxamido)-4-(3-fluoro-4-methylphenyl)thiophene-3-carboxylic acid],< 10 µM

row,Compound,IC50
1,O=C(Nc1scc(-c2ccc(Cl)cc2)c1C(=O)O)c1ccc(C(F)(F)F)nc1 [4-(4-chlorophenyl)-2-(6-(trifluoromethyl)nicotinamido)thiophene-3-carboxylic acid],< 10 µM
2,"O=C(Nc1scc(-c2cc(F)c(F)c(F)c2)c1C(=O)O)c1nc2ccccc2o1 [2-(benzo[d]oxazole-2-carboxamido)-4-(3,4,5-trifluorophenyl)thiophene-3-carboxylic acid]",< 10 µM
3,O=C(O)c1c(-c2ccc(Br)cc2)csc1NC(=O)C1COc2ccccc2C1 (stereo not shown) [4-(4-bromophenyl)-2-(chroman-3-carboxamido)thiophene-3-carboxylic acid],< 10 µM
4,COc1cccc(C(=O)Nc2scc(-c3ccc(Br)cc3)c2C(=O)O)n1 [4-(4-bromophenyl)-2-(6-methoxypicolinamido)thiophene-3-carboxylic acid],< 10 µM
5,O=C(NCc1ccccc1F)Nc1scc(-c2ccc(Cl)cc2)c1C(=O)O [4-(4-chlorophenyl)-2-(3-(2-fluorobenzyl)ureido)thiophene-3-carboxylic acid],< 10 µM
6,O=C(Nc1scc(-c2ccc(C(F)(F)F)cc2)c1C(=O)O)c1nc2ccccc2o1 [2-(benzo[d]oxazole-2-carboxamido)-4-(4-(trifluoromethyl)phenyl)thiophene-3-carboxylic acid],< 10 µM
7,"Cc1nnsc1C(=O)Nc1scc(-c2ccc(Cl)cc2)c1C(=O)O [4-(4-chlorophenyl)-2-(4-methyl-1,2,3-thiadiazole-5-carboxamido)thiophene-3-carboxylic acid]",< 10 µM
8,"O=C(Nc1scc(-c2cc(F)c(Cl)c(F)c2)c1C(=O)O)c1nc2ccccc2o1 [2-(benzo[d]oxazole-2-carboxamido)-4-(4-chloro-3,5-difluorophenyl)thiophene-3-carboxylic acid]",< 10 µM
9,"O=C(O)c1c(-c2ccc(Br)cc2)csc1NC(=O)C1Cc2cc(Cl)ccc2O1 (stereo not shown) [4-(4-bromophenyl)-2-(5-chloro-2,3-dihydrobenzofuran-2-carboxamido)thiophene-3-carboxylic acid]",< 10 µM
10,O=C(CCc1ccccc1)Nc1scc(-c2ccc(Cl)cc2)c1C(=O)O [4-(4-chlorophenyl)-2-(3-phenylpropanamido)thiophene-3-carboxylic acid],< 10 µM
11,O=C(O)c1c(-c2ccc(Cl)cc2)csc1NC(=O)[C@H](F)Cc1ccccc1Cl [(R)-4-(4-chlorophenyl)-2-(3-(2-chlorophenyl)-2-fluoropropanamido)thiophene-3-carboxylic acid],< 10 µM
12,"Cc1ccc(-c2csc(NC(=O)c3sccc3C)c2C(=O)O)cc1C [4-(3,4-dimethylphenyl)-2-(3-methylthiophene-2-carboxamido)thiophene-3-carboxylic acid]",< 10 µM
13,"COc1cccc2cc(-c3csc(NC(=O)c4ccc5snnc5c4)c3C(=O)O)oc12 [2-(benzo[d][1,2,3]thiadiazole-5-carboxamido)-4-(7-methoxybenzofuran-2-yl)thiophene-3-carboxylic acid]",< 10 µM
14,"Cc1ccc(-c2csc(NC(=O)c3cc4c(F)cccn4n3)c2C(=O)O)c(F)c1F [4-(2,3-difluoro-4-methylphenyl)-2-(4-fluoropyrazolo[1,5-a]pyridine-2-carboxamido)thiophene-3-carboxylic acid]",< 10 µM
15,"O=C(Nc1scc(-c2ccc(Br)c(F)c2F)c1C(=O)O)c1cc2ccccc2o1 [2-(benzofuran-2-carboxamido)-4-(4-bromo-2,3-difluorophenyl)thiophene-3-carboxylic acid]",< 10 µM
16,O=C(Nc1scc(-c2ccc(Br)cc2)c1C(=O)O)c1nc2cc(Cl)ccc2o1 [4-(4-bromophenyl)-2-(5-chlorobenzo[d]oxazole-2-carboxamido)thiophene-3-carboxylic acid],< 10 µM
17,O=C(Nc1scc(-c2ccc(Cl)cc2)c1C(=O)O)c1nc2cc(Br)ccc2o1 [2-(5-bromobenzo[d]oxazole-2-carboxamido)-4-(4-chlorophenyl)thiophene-3-carboxylic acid],< 10 µM
18,"Cc1ccc(-c2csc(NC(=O)c3ccc(-c4cccs4)s3)c2C(=O)O)cc1 [2-(2,2′-bithiophene-5-carboxamido)-4-p-tolylthiophene-3-carboxylic acid]",< 10 µM
19,O=C(CCc1cccs1)Nc1scc(-c2ccc(Cl)cc2)c1C(=O)O [4-(4-chlorophenyl)-2-(3-(thiophen-2-yl)propanamido)thiophene-3-carboxylic acid],< 10 µM
20,O=C(Nc1scc(-c2ccc(Br)cc2)c1C(=O)O)c1ccc(C(F)(F)F)nc1 [4-(4-bromophenyl)-2-(6-(trifluoromethyl)nicotinamido)thiophene-3-carboxylic acid],< 10 µM
